Data taken from a melting point compilation (Tetko et al.; mined from patent text by program, amines drawn as free bases though some values may be those of a salt).

SMILES | melting point [°C]
CCOC(=O)c1ccc(NCc2cc3c(cc2O)CCCO3)cc1 | 150
CCC1(N2C(=O)c3c(F)c(F)c(F)c(F)c3C2=O)C(=O)NC(=O)N(c2ccccc2)C1=O (stereo not drawn) | 218 to 220
C/C(=C\C(=O)O)c1cnn(C)c1-c1ccc(F)cc1 | 123 to 124
CCOc1ccc(Cc2cnc(N)nc2N)cc1OC | 195 to 196
Nc1nn(CCN2CCCCC2)cc1-c1ccccc1 | 96
Fc1cc(F)c(-c2c(Cl)nc3ncnn3c2Cl)c(F)c1 | 125 to 126
CS(=O)(=O)NS(=O)(=O)c1cccc(NC(=O)NC2N=C(c3ccccc3F)c3ccccc3N(CC(=O)N3CC4CCC(CC4)C3)C2=O)c1 (racemic) | > 250
Nc1cnc(Oc2ccc(Cl)c3c2CCCC3)c(Cl)c1 | 130 to 132
CCCCCCc1oc(C=Cc2ccccc2)nc1CO | 44 to 45
CC1CC(=O)NN=C1c1ccc(-n2ccc(CN(C)C)c2)cc1 (stereo not drawn) | 167 to 168
Cc1cc(C2=NN(C)C(=O)C2)c(Cl)cc1Cl | 196 to 198
Brc1ccc(C2=CCCC2)cc1 | 94 to 95
CNc1nnc(-c2ccc3ncn(-c4cccc(OC(F)(F)F)c4)c3c2)o1 | 226 to 227
CNc1c(NCCSCc2[nH]cnc2C)c(=O)c1=O | 208
NCc1cc(=O)[nH]c(=O)[nH]1 | 295 to 297
O=C(O)CCCCCCC1=CCCC1=O | 41 to 43
CCCCCCCCC(=O)NCc1ccc(Oc2ccccc2[N+](=O)[O-])c(OC)c1 | 93 to 93.5
O=C(CNC(=O)OCc1ccccc1)NCCCCCCO | 104 to 105
Nc1ccc(C(=O)N2CCOCC2)c(N)c1 | 114 to 115

SMILES | melting point [°C]
CC(=O)OC1CSC(Oc2cncc(S(=O)(=O)c3ccc(F)cc3)c2)C(OC(C)=O)C1OC(C)=O (stereo not drawn) | 128
Cc1ccc(C(=O)c2cc(C)n(C)c2)cc1 | 117 to 119
COCn1c(Cl)c(Cl)c(C#N)c1Cl | 48 to 49
CS(=O)(=O)OCc1cc(I)cc(I)c1I | 130 to 133
O=C1Cc2cc(C(=O)O)ccc2N1 | > 300
CC(=O)ON1C(C)(C)CC(OC(=O)c2ccccc2C(=O)OC2CC(C)(C)N(OC(C)=O)C(C)(C)C2)CC1(C)C | 172 to 175
Cc1c2c(cc3ccc(=O)oc13)C=CC(C)(C)O2 | 105 to 107
CCC(Cc1cccc(F)c1)n1nnc2cc3c(cc2c1=O)OC1CCCN1C3=O (stereo not drawn) | 117 to 119
COc1ccc(CN2C(=O)[C@H]([C@@H](C)O)[C@H]2[C@@H]2COC(C)(C)O2)c(OC)c1 | 145 to 146
Cc1ccc(F)c([Si](C)(C)C)c1C#N | 71 to 73
CC1C(C)(C)C2=C(c3ncncc3CC2)C1(C)C (stereo not drawn) | 80
COc1ccc(C=Cc2ccc([N+](=O)[O-])cc2C(F)(F)F)cc1 | 120 to 123
CCNC1=CC(=O)c2c(OC)ccc(OC)c2C1=O | 172 to 173
CSC(Nc1cccnc1)=C(C#N)S(=O)(=O)c1ccc(Cl)cc1 | 181 to 182
CC(C)COc1ccc(C(=O)NCC(=O)O)cc1 | 140 to 142
COC(=O)c1cc(OCC(=O)O)cc(C(=O)OC)c1[N+](=O)[O-] | 151 to 152
CN(C)C(=O)c1ccc(Nc2nc(OCC3CCCCC3)c3nc[nH]c3n2)cc1 | 184 to 186
COC1=C(OC)C(=O)C(CCCCCCCCCCCCCO)=C(C)C1=O | 65 to 66
COc1cc(C=C(C#N)C(N)=O)c([N+](=O)[O-])cc1OC | 265 to 266

SMILES | melting point [°C]
CNC(=O)C(Cc1ccc(OC)cc1)NC(=O)C(CC(C)C)C(S)CC(=O)OC(C)(C)C (stereo not drawn) | 133 to 137
CCn1cnc(=O)c(-c2cccc(C(F)(F)F)c2)c1 | 172 to 173
N#CN1c2ccccc2CC(Cl)c2ccccc21 (stereo not drawn) | 139 to 140
COc1ccc(-c2cc(=Nc3c(C)cc(C)cc3C)n(C)c(NN)n2)cc1OC | > 300
CCCc1nc(N2CCc3ccccc3CC2)c(C#N)c(=O)n1CC(F)(F)F | 104 to 106
COc1c(OC)c(OC(C)=O)c2cc(OCCc3ccccc3)ccc2c1OC(C)=O | 70 to 71
CCCCCCCCCCCCC1(Cn2ccnc2)SCC(CCCC)S1 (stereo not drawn) | 156 to 161
COc1ccc(C2CCc3cc(OC)ccc3C2CO)cc1 (stereo not drawn) | 84
COc1ccc2c(c1)CCC1C2CCC2(C)C(=O)C=C(C(C)C)C12 (stereo not drawn) | 113 to 116
CNC(=O)c1cc2c(Oc3ccc(Br)cc3)cncc2s1 | 78 to 80
COc1ccc(F)cc1C(C)(C)CC(O)(CN1CC(C)NC(C)C1)C(F)(F)F (stereo not drawn) | 61 to 62
CCC(=O)NC1CCc2c(ccc(OC)c2N)C1 (stereo not drawn) | 141
O=C(Cc1c2c(nn1-c1ccccc1)c(Cl)nc1ccccc12)N1CCN(Cc2ccccc2)CC1 | 210 to 212
CC(=O)Nc1ccc(OCC(O)CN(C)C)c(NC(C)=O)c1 (stereo not drawn) | 118 to 120
Cc1cc(Br)cnc1CCCNc1ncc(Cc2cccnc2)cc1O | 141 to 143
CCS(=O)(=O)N1C[C@H](C)N(C(=O)[C@@](C)(O)C(F)(F)F)C[C@H]1C | 142 to 144
COC1=Nc2c(C)ccnc2N(C2CC2)c2ncccc21 | 191 to 192
CN1CCc2c(cc3ccccc3c2N)C1 | 97 to 99

More lines, now with the values ahead:

melting point [°C] | SMILES
108 to 118 | Cc1cccc(C(=O)Nc2ccc(-c3ccc(-c4ccccc4Cl)n3Cc3cccc(N)n3)cc2)c1
188 to 190 | Cc1cc(C)n2nc(S(=O)(=O)Nc3ccccc3Cl)nc2n1
210 to 214 | Nc1nc2ccc(C(O)C(COc3ccccc3)N3CCC(Cc4ccccc4)CC3)cc2s1 (stereo not drawn)
158 to 161 | CCCCCSc1ncccc1C(=O)NCCCCn1cnc2c(N)nc3ccccc3c21
215 to 216 | Cc1cccc(N2C(=O)C(=NO)c3ccccc32)c1C
300 | O=C(NCc1c[nH]c(-c2cc3nc(C(=O)O)c(=O)[nH]c3cc2[N+](=O)[O-])n1)Nc1ccccc1F
100 to 106 | Brc1ccc(OCc2ccccn2)cc1/C=C/c1cc(/C=C/c2ccc3cc[nH]c3c2)[nH]n1
222 to 223 | COc1ccc(-c2cc(=S)[nH]nc2-c2ccc(OC)c(F)c2)cc1
196 to 198 | O=C1CN(c2ccccc2)C(=O)N1C(=O)c1ccc(-c2ccccc2)cc1
84 to 87 | COC(=O)c1cc2cc(-c3ccc(C)cc3)ccc2nc1C
148 to 149 | O=C1OC(Cl)(c2ccc(Cl)cc2Cl)c2ccccc21 (stereo not drawn)
109 to 110 | CCCC(=O)c1cnc2c(OCCCN(C)C)cccc2c1Nc1ccccc1C
135 to 140 | O=C(O)CCC(CC=Cc1ccccc1)(C(=O)C=Cc1ccc(Cl)cc1)c1ccccc1 (stereo not drawn)
58 to 60 | Cc1ccc(S(=O)(=O)OCCc2cccc3[nH]cc(S(=O)(=O)c4ccccc4)c23)cc1
162 | CC(C)S(=O)(=O)n1cc(-c2ccc(Oc3ccccc3)cc2)c2c(N)ncnc21
251 to 254 | CCOC(=O)c1cnn(C)c1C(=O)Nc1ccc2nc(-c3ccccc3)nn2c1
52 to 53 | c1ccc(CNc2c(-c3ccccc3)sc3ccccc23)cc1
178 to 179 | O=C(CC1=C(n2nc(-c3c(-c4ccccc4)nn4ccccc34)ccc2=O)CCCC1)N1CCCC1
130 to 131 | CN(CCN1C(=O)c2ccccc2C1=O)C(c1ccccc1)c1ccccc1
251 | O=C(Nc1cccc(S(=O)(=O)NCc2ccncc2)c1)c1cnn2c(C(F)(F)F)cc(-c3ccc(C(F)(F)F)cc3)nc12
146 | COc1c(Cl)cc(-c2cc(F)c(F)cc2-c2ccc(S(N)(=O)=O)cc2)cc1Cl

melting point [°C] | SMILES
152 to 153 | C[C@@H](C(N)=O)c1ccc(NS(=O)(=O)c2ccccc2)cc1
70 to 72 | COc1ccc(Nc2nc(C)ccc2S(=O)(=O)c2ccc(OCc3ccccc3OC)cc2)c(C)c1
120 to 123 | CS(=O)(=O)c1ccc(-n2nc(CCCO)cc2-c2ccccc2)cc1
124 to 125 | CCOC(=O)C1Cc2cc3c(-c4ccccc4F)noc3c(C)c2O1 (stereo not drawn)
114 to 115 | Cc1cc(C)n(C(=O)C2c3ccccc3Oc3ccccc32)n1
169 to 180 | Cc1nnc(-c2ccc(CN3C(=O)C4(COc5cc6c(cc54)CCO6)c4ccccc43)cc2)[nH]1 (stereo not drawn)
181 to 182 | C[C@@H](NC(=O)c1cnn(-c2ccc(Cl)cc2)c1C1CC1)[C@](O)(Cn1cncn1)c1ccc(F)cc1F
61 to 62 | CCOC(=O)Cc1ccc(C(=O)c2ccccc2)cc1[N+](=O)[O-]
128 to 130 | C[C@@H]1Cc2cc3c(cc2C(c2ccc(N)cc2)=NN1c1ccccn1)OCO3
97 to 99 | Cc1ccc(C(Cn2cncn2)=NOCc2c(Cl)cccc2Cl)c(Cl)c1
200 to 202 | CCOC(=O)Nc1ccc2nc3ccccc3c(-c3cc(C)ccc3C)c2c1
273 to 275 | COc1ccc2ncc(NC(=O)C=Cc3cc(OC)c(OC(C)=O)c(OC)c3)c(-c3ccccc3)c2c1
150 to 151 | CS(=O)(=O)Nc1cccc(C(=O)NCCN2CCC(Oc3ccc(Cl)c(Cl)c3)CC2)c1
164 to 167 | CC(=O)N1C[C@@H](P(c2ccc(C)cc2)c2ccc(C)cc2)[C@H](P(c2ccc(C)cc2)c2ccc(C)cc2)C1
174 to 176 | COC(=O)c1cc2ccncc2c2sc3ccccc3c12
170 to 171 | O=C(c1ccn2c1CSC2c1cccnc1)c1cn(CCO)c2cc(-c3ccc(F)cc3)ccc12 (stereo not drawn)
148 to 150 | CCN(CC)CC(O)CNC(=O)c1c(OC)c2ccccc2n1-c1ccccc1 (stereo not drawn)
70 | CN(C)Cc1ccc(CNC(=O)C2Cc3ccccc3N2S(=O)(=O)c2ccc(-c3cccc(C(F)(F)F)c3)cc2)cc1 (stereo not drawn)
204 | O=C(O)c1cc(OCc2ccccc2)c(OCc2ccccc2)cn1
178 | N#Cc1cnc(Nc2ccc(OCCn3ccnn3)cc2)nc1-c1ccccc1
163 to 164 | O[C@H]1c2cc(OCc3ccc4cc(F)ccc4n3)ccc2OC[C@H]1Oc1cccnc1
